This note sets out measurements from patent US20140121216A1, “INDOLEAMINE DERIVATIVES FOR THE TREATMENT OF CENTRAL NERVOUS SYSTEM DISEASES” (Adamed Sp. z o.o., priority 2011, published 2014).

The target in test [1] is T1, D2S (h), human recombinant (HEK-293 cells) (Homo sapiens, UniProt P14416).
T1 construct: expressed in transfected cells; host or cells: HEK-293 cells
Description: Cellular functional assay D2S (h) agonism. It counts as cell-based. Conditions: HEK293; compound 1×10^−6 M; control 3 μM dopamine; read-out: D2-ag [%]. The procedure:
(§1) The results are expressed as a percent of control specific agonist response ((measured specific response/control specific agonist response)×100) obtained in the presence of tested compound.
(§2) The EC50 values (concentration producing a half-maximal specific response) and IC50 values (concentration causing a half-maximal inhibition of the control specific agonist response) were determined by non-linear regression analysis of the concentration-response curves generated with mean replicate values using Hill equation curve fitting (Y=D+[(A−D)/(1+(C/C50)nH)], where Y=specific response, D=minimum specific response, A=maximum specific response, C=compound concentration, and C50=EC50 or IC50, and nH=slope factor).
(§3) For the antagonists, the apparent dissociation constants (Kb) were calculated using the modified Cheng Prusoff equation (Kb=IC50/(1+(A/EC50A)), where A=concentration of reference agonist in the assay, and EC50A=EC50 value of the reference agonist).

Test [2] addresses T2, 5-HT1A (h), human recombinant (CHO cells) (Homo sapiens, UniProt P08908).
T2 construct: expressed in transfected cells; host or cells: CHO cells
T2 sequence (P08908 1-422): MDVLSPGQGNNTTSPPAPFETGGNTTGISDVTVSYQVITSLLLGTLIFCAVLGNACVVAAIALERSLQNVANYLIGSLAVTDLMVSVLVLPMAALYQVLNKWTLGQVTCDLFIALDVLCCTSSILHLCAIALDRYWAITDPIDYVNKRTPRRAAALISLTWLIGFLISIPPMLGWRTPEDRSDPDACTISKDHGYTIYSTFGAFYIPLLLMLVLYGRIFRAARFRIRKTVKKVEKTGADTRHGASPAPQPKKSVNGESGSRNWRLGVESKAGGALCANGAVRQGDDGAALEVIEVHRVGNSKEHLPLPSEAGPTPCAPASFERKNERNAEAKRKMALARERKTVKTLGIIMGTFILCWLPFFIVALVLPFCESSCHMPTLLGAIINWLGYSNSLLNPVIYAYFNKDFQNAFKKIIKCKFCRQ
The test can be described thus: Cellular functional assay 5-HT1A (h) antagonism. It counts as cell-based. Conditions: compound 1×10^−6 M; stimulus 8-OH-DPAT 10 nM. The procedure:
as §1, §2, §3

For test [3], the target named is T3, D3 (h), human recombinant (CHO cells) (Homo sapiens, UniProt P35462).
T3 construct: expressed in transfected cells; host or cells: CHO cells
Description: Cellular functional assay D3 (h) antagonism. It counts as cell-based. The conditions noted are these: compound 1×10^−6 M; stimulus dopamine 10 nM. The procedure: as §1, §2, §3

For test [4], the target named is T4, 5-HT6 (h), human recombinant (CHO cells) (Homo sapiens, UniProt P50406).
T4 construct: expressed in transfected cells; host or cells: CHO cells
The test can be described thus: Cellular functional assay 5-HT6 (h) antagonism. The test is classed as cell-based. Conditions: compound 1×10^−6 M, stimulus serotonin 100 nM, read-out: 5-HT6-antag [%]. The procedure:
as §1, §2, §3

The target of test [5] is T5, 5-HT2C receptor, human recombinant (HEK-293 cells) (Homo sapiens, UniProt P28335).
T5 construct: expressed in transfected cells; host or cells: HEK-293 cells
T5 sequence (P28335 33-458): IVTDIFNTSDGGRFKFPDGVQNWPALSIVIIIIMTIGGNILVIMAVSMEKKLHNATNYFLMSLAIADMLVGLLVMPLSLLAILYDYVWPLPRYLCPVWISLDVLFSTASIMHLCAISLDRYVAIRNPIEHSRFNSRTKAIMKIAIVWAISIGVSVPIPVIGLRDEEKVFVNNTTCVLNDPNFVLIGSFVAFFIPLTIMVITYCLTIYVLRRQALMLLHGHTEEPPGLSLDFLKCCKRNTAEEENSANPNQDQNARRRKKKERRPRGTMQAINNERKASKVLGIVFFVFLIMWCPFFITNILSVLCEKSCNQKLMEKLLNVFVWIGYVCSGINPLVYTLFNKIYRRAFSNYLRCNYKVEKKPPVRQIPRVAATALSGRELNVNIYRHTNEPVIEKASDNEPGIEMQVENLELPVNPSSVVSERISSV
Description: Binding assay, 5-HT2C receptor ([3H]mesulergine). Conditions: for 5-HT2C [%] binding assay result: compound 1×10^−6 M. The procedure:
(§4) Moreover, ability of the compounds of the invention to block potassium channel hERG was tested.
(§5) The specific ligand binding to the receptors is defined as the difference between the total binding and the non-specific binding determined in the presence of an excess of unlabelled ligand.
(§6) The inhibition constants (Ki) were calculated using the Cheng Prusoff equation (Ki=IC50/(1+(L/KD)), where L=concentration of radioligand in the assay, and KD=affinity of the radioligand for the receptor). A Scatchard plot is used to determine the Kd. The IC50 values (concentration causing a half-maximal inhibition of control specific binding) and Hill coefficients (nH) were determined by non-linear regression analysis of the competition curves generated with mean replicate values using Hill equation curve fitting (Y=D+[(A−D)/(1+(C/C50)^nH)], where Y=specific binding, D=minimum specific binding, A=maximum specific binding, C=compound concentration, C50=IC50, and nH=slope factor).

For test [6], the target named is T6, α2C adrenergic receptors, human recombinant (CHO cells) (Homo sapiens, UniProt P18825).
T6 construct: expressed in transfected cells; host or cells: CHO cells
T6 sequence (P18825 1-462): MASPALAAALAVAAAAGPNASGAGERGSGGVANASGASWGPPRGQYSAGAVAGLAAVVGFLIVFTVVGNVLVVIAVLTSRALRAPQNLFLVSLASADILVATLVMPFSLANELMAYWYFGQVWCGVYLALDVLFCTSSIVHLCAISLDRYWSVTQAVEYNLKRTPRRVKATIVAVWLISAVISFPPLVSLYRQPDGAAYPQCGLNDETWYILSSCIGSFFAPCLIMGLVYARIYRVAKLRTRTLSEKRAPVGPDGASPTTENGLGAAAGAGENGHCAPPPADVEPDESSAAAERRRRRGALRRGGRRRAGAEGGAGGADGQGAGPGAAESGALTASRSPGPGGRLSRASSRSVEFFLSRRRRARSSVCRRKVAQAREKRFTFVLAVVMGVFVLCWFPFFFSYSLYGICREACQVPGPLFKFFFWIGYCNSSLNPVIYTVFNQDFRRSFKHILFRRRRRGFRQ
Description: Binding assay, α2C adrenergic receptor ([3H]RX 821002). The conditions noted are these: for α2C [%] affinity test result: compound 1×10^−6 M; for Ki: read-out: Inhibition constant Ki α2C. The procedure:
as §4, §5
as §6, with “factor). This analysis was performed using a software developed at Cerep (Hill software) and validated by comparison with data generated by the commercial software SigmaPlot® 4.0 for Windows® (©1997 by SPSS Inc.).” for “factor).”
Experimental conditions for tests are given in Table 7, and results of tests for representative compounds are given in Tables 8a and 8b (α1 receptors) and in Tables 9a and 9b (α2C receptors).

T1 sequence (P14416 1-414 isoform P14416-2): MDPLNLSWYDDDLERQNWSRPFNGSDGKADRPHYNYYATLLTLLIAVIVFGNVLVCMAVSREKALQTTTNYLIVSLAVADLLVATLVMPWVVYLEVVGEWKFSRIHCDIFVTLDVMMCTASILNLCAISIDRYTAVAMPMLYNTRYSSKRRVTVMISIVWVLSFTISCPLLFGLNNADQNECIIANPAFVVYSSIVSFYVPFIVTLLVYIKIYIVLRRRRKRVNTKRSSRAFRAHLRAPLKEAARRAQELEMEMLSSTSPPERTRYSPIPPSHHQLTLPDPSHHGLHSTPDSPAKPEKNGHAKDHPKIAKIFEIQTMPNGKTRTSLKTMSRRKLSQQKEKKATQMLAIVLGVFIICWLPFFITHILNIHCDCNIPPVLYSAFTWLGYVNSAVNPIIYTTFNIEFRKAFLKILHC
T4 sequence (P50406 whole entry): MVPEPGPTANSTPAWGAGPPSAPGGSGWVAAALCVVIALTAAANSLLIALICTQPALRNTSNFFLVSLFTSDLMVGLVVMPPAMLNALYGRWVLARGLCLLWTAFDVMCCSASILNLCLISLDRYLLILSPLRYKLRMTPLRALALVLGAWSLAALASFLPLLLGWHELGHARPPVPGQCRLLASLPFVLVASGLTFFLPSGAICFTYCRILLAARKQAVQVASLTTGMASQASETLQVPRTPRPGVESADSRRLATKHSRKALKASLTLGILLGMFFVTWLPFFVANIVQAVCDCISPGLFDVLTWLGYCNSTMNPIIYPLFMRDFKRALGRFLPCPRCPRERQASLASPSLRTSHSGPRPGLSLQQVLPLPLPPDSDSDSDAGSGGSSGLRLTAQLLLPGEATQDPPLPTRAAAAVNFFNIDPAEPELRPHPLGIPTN
T3 sequence (P35462 whole entry): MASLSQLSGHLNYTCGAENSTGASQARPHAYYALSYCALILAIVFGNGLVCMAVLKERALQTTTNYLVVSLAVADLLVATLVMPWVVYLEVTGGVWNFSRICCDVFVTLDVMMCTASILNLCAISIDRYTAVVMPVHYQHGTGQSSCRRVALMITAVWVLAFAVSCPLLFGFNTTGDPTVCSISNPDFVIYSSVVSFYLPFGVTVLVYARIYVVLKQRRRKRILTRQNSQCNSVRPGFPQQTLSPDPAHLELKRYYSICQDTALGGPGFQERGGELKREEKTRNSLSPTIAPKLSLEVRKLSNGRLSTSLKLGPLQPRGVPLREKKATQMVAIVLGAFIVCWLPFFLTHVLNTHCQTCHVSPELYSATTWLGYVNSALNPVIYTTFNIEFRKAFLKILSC

In the case of `O=C1CCc2ccc(OCCCN3CCN(c4cccc5c4ccn5Cc4ccccc4)CC3)cc2N1` [Compound 4, 7-[3-[4-(1-Benzylindol-4-yl)piperazin-1-yl]propoxy]-3,4-dihydro-1H-quinolin-2-one], in test [1], the activation at 1 µM was 45%. Further, the “5-HT1A-antag [%]” value in test [2] is 17%. Further, in test [3], the “D3-antag [%]” value is given as 29%. In addition, the inhibition at 1 µM in test [4] worked out at 73%. In addition, the “5-HT2C [%] binding assay result” value in test [5] stood at 73%. For the same molecule, the “α2C [%] affinity test result” value in test [6] is on record as 93%.

In the case of `O=C1CCc2ccc(OCCCCN3CCN(c4cccc5c4ccn5Cc4ccccc4)CC3)cc2N1` [Compound 5, 7-(4-(4-(1-Benzyl-1H-indol-4-yl)piperazin-1-yl)butoxy)-3,4-dihydroquinolin-2(1H)-one], the activation at 1 µM in test [1] turned out to be 47%. The “5-HT1A-antag [%]” value in test [2] is on record as 31%. For the same molecule, the “D3-antag [%]” value in test [3] is 43%. In addition, the inhibition at 1 µM in test [4] amounted to 42%. Besides, in test [5], the “5-HT2C [%] binding assay result” value turned out to be 86%. In addition, in test [6], the “α2C [%] affinity test result” value was found to be 93%.

Take `O=C1CCc2ccc(OCCCN3CCN(c4cccc5c4ccn5S(=O)(=O)c4ccccc4)CC3)cc2N1` [Compound 23, 7-[3-[4-[1-(Benzensulphonyl)indol-4-yl]piperazin-1-yl]propoxy]-3,4-dihydro-1H-quinolin-2-one]: the activation at 1 µM in test [1] worked out at 40%. In addition, the “5-HT1A-antag [%]” value in test [2] is recorded as 20%. For the same molecule, the “D3-antag [%]” value in test [3] is given as −19%. Moreover, the inhibition at 1 µM in test [4] was determined as 42%. Also, in test [5], the “5-HT2C [%] binding assay result” value is 0%. Moreover, in test [6], the “α2C [%] affinity test result” value came to 32% and the Ki (commonly the equilibrium dissociation constant of an inhibitor or competing ligand from its target) stood at 0.44 µM.

`O=C1CCc2ccc(OCCCCN3CCN(c4cccc5c4ccn5S(=O)(=O)c4ccccc4)CC3)cc2N1` [Compound 24, 7-(4-(4-(1-(Phenylsulphonyl)-1H-indol-4-yl)piperazin-1-yl)butoxy)-3,4-dihydroquinolin-2(1H)-one]: the activation at 1 µM in test [1] turned out to be 47%. Moreover, in test [2], the “5-HT1A-antag [%]” value stood at 0%. In addition, the “D3-antag [%]” value in test [3] was 63.2%. Also, the inhibition at 1 µM in test [4] came out at 88.7%. Also, the “5-HT2C [%] binding assay result” value in test [5] was 48%. The inhibition constant Ki in test [5] (read-out: Inhibition constant Ki 5-HT2C) is 0.61 µM. Moreover, in test [6], the “α2C [%] affinity test result” value came out at 78% and the inhibitory constant (Ki) amounted to 0.15 µM.

With `O=C1CCc2ccc(OCCCCN3CCN(c4cccc5c4ccn5Cc4cccc(F)c4)CC3)cc2N1` [Compound 63, 7-[4-[4-[1-[(3-Fluorophenyl)methyl]indol-4-yl]piperazin-1-yl]butoxy]-3,4-dihydro-1H-quinolin-2-one], the activation at 1 µM in test [1] was determined as 47%. Also, the “5-HT1A-antag [%]” value in test [2] was 73%. Besides, the “D3-antag [%]” value in test [3] was determined as 72%. For the same molecule, in test [4], the inhibition at 1 µM is 61%. Also, the “5-HT2C [%] binding assay result” value in test [5] stood at 89%. For the same molecule, the “α2C [%] affinity test result” value in test [6] amounted to 100%.

With `O=C1CCc2ccc(OCCCCN3CCN(c4cccc5c4ccn5Cc4cccc(Cl)c4)CC3)cc2N1` [Compound 67, 7-[4-[4-[1-[(3-Chlorophenyl)methyl]indol-4-yl]piperazin-1-yl]butoxy]-3,4-dihydro-1H-quinolin-2-one], in test [1], the activation at 1 µM was determined as 46%. Further, the “5-HT1A-antag [%]” value in test [2] is listed as 56%. For the same molecule, the “D3-antag [%]” value in test [3] is recorded as 74%. The inhibition at 1 µM in test [4] was determined as 53%. Besides, the “5-HT2C [%] binding assay result” value in test [5] was 76%. The “α2C [%] affinity test result” value in test [6] was determined as 97%.

As to `NC(=O)c1ccccc1OCCCN1CCN(c2cccc3c2ccn3S(=O)(=O)c2ccccc2)CC1` [Compound 72, 2-[3-[4-[1-(Benzenesulfonyl)indol-4-yl]piperazin-1-yl]propoxy]-benzamide], in test [1], the activation at 1 µM came out at 34%. For the same molecule, the “5-HT1A-antag [%]” value in test [2] stood at 61%. The “D3-antag [%]” value in test [3] worked out at 74%. Further, in test [4], the inhibition at 1 µM turned out to be 103%. In test [5], the “5-HT2C [%] binding assay result” value was 35%. Moreover, the “α2C [%] affinity test result” value in test [6] is 74%.
